{"source": "patent US20090010976A1", "about": "“Cosmetic or dermopharmaceutical compositions containing kombucha” (SEDERMA, priority 2002, published 2009)", "test_system": "serum albumin", "assay": "Anti-glycation effect: serum albumin incubated with fructose, fluorescent 'AGE' (FFI) formation", "type": "biochemical", "conditions": "one week", "description": "Principle: The in vitro model consists in serum albumin incubated with fructose at […]. Glycation is monitored through the formation of fluorescent compounds, generally pentosidines or FFI (furoyl-furanyl-imidazoles.\nProtocol: Non-enzymatic glycation between serum albumin and fructose is a slow spontaneous reaction that is accelerated by heat.\nIn our test, serum albumin (at 2%) and fructose (at 100 mM) were incubated in phosphate buffer medium pH 7.4 at 50° C. for one week. […] The reference (Control) glycation value after one week is determined on the serum albumin and fructose incubation medium. The positive control for glycation inhibition is obtained by incubation in the presence of 0.03% aminoguanidine and the test incubations were conducted in the presence of kombucha at various concentrations.\nResults: For each fluorescence value determined, the percentage change on the control is calculated. The results shown in the following table are mean values for n=4 replicates."}
{"compound": "N=C(N)NN", "note": "[aminoguanidine]", "values": [{"measurement": "% 'AGE' decrease (inhibition of 'AGE' production, FFI compounds)", "setting": "aminoguanidine 0.03%, serum albumin 2% + fructose 100 mM, pH 7.4, 50° C., mean of n=4", "result": "89 ± 5", "unit": "%"}, {"measurement": "Inhibition of glycation, result in words", "setting": "serum albumin + fructose, 50° C.", "result": "excellent inhibition of glycation"}]}
